Drawing on BindingDB's records for doi:10.1021/bi900258v (Pfizer, 2009), this text covers Ki for two compounds.

The structures appear in SMILES notation.

The target in assay [1] is T1, Serine/threonine-protein kinase Chk1 (Homo sapiens, UniProt O14757).
T1 sequence (O14757 whole entry): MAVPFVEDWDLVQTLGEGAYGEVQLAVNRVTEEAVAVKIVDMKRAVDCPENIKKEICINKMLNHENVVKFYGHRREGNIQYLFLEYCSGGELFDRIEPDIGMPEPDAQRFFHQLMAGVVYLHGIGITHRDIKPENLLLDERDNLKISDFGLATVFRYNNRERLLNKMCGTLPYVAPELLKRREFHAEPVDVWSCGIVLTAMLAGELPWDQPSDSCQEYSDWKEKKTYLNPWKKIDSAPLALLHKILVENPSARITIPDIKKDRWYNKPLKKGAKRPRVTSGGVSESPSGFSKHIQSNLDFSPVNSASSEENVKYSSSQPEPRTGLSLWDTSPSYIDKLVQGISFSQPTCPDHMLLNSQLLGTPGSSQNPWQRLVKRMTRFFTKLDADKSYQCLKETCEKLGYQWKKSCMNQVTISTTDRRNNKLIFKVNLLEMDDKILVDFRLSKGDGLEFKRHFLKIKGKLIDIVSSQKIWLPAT
The assay can be described thus: CHK1 Inhibition Assay. To be noted: pH 7.4; 22 °C. The source says: The inhibitors reported in this study bind to CHK1 according to a general mechanism illustrated in Scheme 1 where E, S, and I stand for enzyme, substrate and inhibitor using Caliper LC-3000 instrument (Caliper Life Science).

In assay [2] the target is T1, Serine/threonine-protein kinase Chk1. The assay can be described thus: Surface Plasmon Resonance BindingAssay. As to conditions: pH 8; 20 °C. Here is the method:
Surface plasmon resonance (SPR) biosensor binding studies were conducted using a Biacore 3000 instrument (GE Healtchare).

Regarding `O=C1NN=Cc2c(C(=O)N3C[C@@H](O)[C@@H](O)C3)[nH]c3cc(NC(=O)C4C[C@H]4c4ccccc4)cc1c23` (some centres undefined) [CHK1 compound 1], the figures for the Ki in assay [1] and in assay [2] were 1.75 nM and 5.14 nM, respectively.

On to `CC(C)(C)c1ccc(C(=O)NC(=O)Nc2cccc3ccccc23)cc1[N+](=O)O` [CHK1 compound 3], for which the values for the Ki in assay [1] and in assay [2] were 146 nM and 290 nM, respectively.

By Ki is commonly meant the dissociation constant of the complex between target and ligand, obtained from inhibition or displacement. High values mean lower affinity, low ones higher affinity.
